{"source": "PubChem BioAssay AID1259409", "about": "(Chemical Carcinogenesis Research Information System (CCRIS), 2018)", "origin": "cited, not measured here", "test_system": "rodent chemically induced tumor inhibition, incidence and multiplicity", "test": "CCRIS tumor inhibitor studies", "data": [{"molecule": "CC(C)=CCC/C(C)=C/CC/C(C)=C/C=C/C(C)=C/C(=O)O", "values": [{"measurement": "outcome", "setting": "Carcinogen: 3-METHYL-4-DIMETHYLAMINOAZOBENZENE [3732-90-9], Dose [Inhibitor]: 0, 10, 40, 80 MG/KG BW DAILY FOR 16 WK, Dose [Inhibitor]: 0, 10, 40, 80 MG/KG BW DAILY FOR 16 WK, Route [Inhibitor]: ORAL (GAVAGE), Species: RAT, Strain/Sex: F344/MALE (40,29)/(40,30)/(40,30)/(40,29), Target Tissue: Type of Lesion: LIVER: HEPATOCELLULAR CARCINOMA, Dose [Carcinogen]: 0.06% FOR 16 WK", "result": "(17/29) 57%; (16/30) 53%, 9%; (4/30) 13%, 77%, p<0.05; (2/29) 7%, 89%, p<0.05"}, {"measurement": "outcome", "setting": "Carcinogen: 3-METHYL-4-DIMETHYLAMINOAZOBENZENE [3732-90-9], Dose [Inhibitor]: 0, 10, 40, 80 MG/KG BW DAILY FOR 16 WK, Dose [Inhibitor]: 0, 10, 40, 80 MG/KG BW DAILY FOR 16 WK, Route [Inhibitor]: ORAL (GAVAGE), Species: RAT, Strain/Sex: F344/MALE (40,29)/(40,30)/(40/30)/(40,29), Target Tissue: Type of Lesion: LIVER: HEPATOCELLULAR ADENOMA, Dose [Carcinogen]: 0.06% FOR 16 WK", "result": "(29/29) 100%; (30/30) 100%, 0%; (26/30) 86.7%, 13.3%; (24/29) 82.4%, 17.6%"}]}, {"molecule": "CCCCCc1ccccc1", "values": [{"measurement": "tumour outcome (control, treated, inhibition, significance)", "setting": "Carcinogen: 4-(METHYLNITROSAMINO)-1-(3-PYRIDYL)-1-BUTANONE, 64091-91-4, Dose [Inhibitor]: 0, 25 UMOL IN 0.1 ML CORN OIL ONCE 2 HR PRIOR TO CARCINOGEN DOSE (STUDY DURATION: 16 WK), Route [Inhibitor]: GAVAGE, Species: MOUSE, Strain/Sex: STRAIN-A/FEMALE, Target Tissue: Type of Lesion: LUNG: TUMOR, Dose [Carcinogen]: 10 UMOL IN 0.1 ML SALINE ONCE, Promoter: NONE USED", "result": "100%, 95%, 5%, not significant"}]}, {"molecule": "C[S+](CC[C@H](N)C(=O)[O-])C[C@H]1O[C@@H](n2cnc3c(N)ncnc32)[C@H](O)[C@@H]1O", "note": "(some centres undefined)", "values": [{"measurement": "tumour outcome (control, treated, inhibition, significance)", "setting": "Carcinogen: 1,2-DIMETHYLHYDRAZINE, 540-73-8, Dose [Inhibitor]: 0, 96 UMOL/KG 4/D FOR 32 WK BEGINNING 1 WK POST CARCINOGEN DOSE (STUDY DURATION: 33 WK), Route [Inhibitor]: INTRAMUSCULAR, Species: RAT, Strain/Sex: F344/MALE, Target Tissue: Type of Lesion: LIVER: HEPATOCELLULAR CARCINOMA, Dose [Carcinogen]: 100 MG/KG ONCE 18 HR AFTER RATS WERE SUBJECTED TO TWO-THIRDS HEPATECTOMY, Promoter: OROTIC ACID, 65-86-1", "result": "6/16 (38%), 1/24 (4%), 89%, not calculated"}, {"measurement": "tumour outcome (control, treated, inhibition, significance)", "setting": "Carcinogen: DIETHYLNITROSAMINE, 55-18-5, N-ACETYLAMINOFLUORENE, 53-96-3, Carcinogen: DIETHYLNITROSAMINE, 55-18-5, N-ACETYLAMINOFLUORENE, 53-96-3, Dose [Inhibitor]: 0, 64 UMOL/KG 6/D FOR 24 WK BEGINNING POST CARCINOGEN TREATMENT (STUDY DURATION: 28 MO), Route [Inhibitor]: INTRAMUSCULAR, Species: RAT, Strain/Sex: WISTAR/MALE, Target Tissue: Type of Lesion: LIVER: CARCINOMA, Dose [Carcinogen]: 150 MG/KG DEN ONCE THEN 2 WK LATER 0.03% AAF IN DIET FOR 2 WK WITH A PARTIAL HEPATECTOMY PERFORMED MIDWAY THROUGH CARCIN, Promoter: PHENOBARBITAL, 50-06-6", "result": "10/10 (100%), 3/11 (27%), 73%, p<0.025"}]}, {"molecule": "C[C@@]12CCc3occc3[C@H]1CC[C@@]13C[C@@H](CC[C@H]12)[C@@](O)(CO)C3", "values": [{"measurement": "tumour outcome (control, treated, inhibition, significance)", "setting": "Carcinogen: 7,12-DIMETHYLBENZ[A]ANTHRACENE, 57-97-6, Dose [Inhibitor]: 0, 0.2 G/KG OF DIET OF 50:50 MIXTURE OF KAHWEOL AND CAFESTOL FOR 14 WK BEGINNING 1 WK PRIOR TO CARCINOGEN TREATMENT (STU, Route [Inhibitor]: ORAL, Species: HAMSTER, Strain/Sex: SYRIAN/FEMALE, Target Tissue: Type of Lesion: BUCCAL POUCH: TUMOR, Dose [Carcinogen]: 0.5% SOLUTION IN MINERAL OIL PAINTED ON LEFT BUCCAL POUCH 3/WK FOR 13 WK, Promoter: NONE USED", "result": "14/14 (100%), 14/14 (100%), 0%, not significant"}, {"measurement": "tumour outcome (control, treated, inhibition, significance)", "setting": "Carcinogen: 7,12-DIMETHYLBENZ[A]ANTHRACENE, 57-97-6, Dose [Inhibitor]: 0, 2 G/KG OF DIET OF 50:50 MIXTURE OF KAHWEOL AND CAFESTOL FOR 14 WK BEGINNING 1 WK PRIOR TO CARCINOGEN TREATMENT (STUDY, Route [Inhibitor]: ORAL, Species: HAMSTER, Strain/Sex: SYRIAN/FEMALE, Target Tissue: Type of Lesion: BUCCAL POUCH: TUMOR, Dose [Carcinogen]: 0.5% SOLUTION IN MINERAL OIL PAINTED ON LEFT BUCCAL POUCH 3/WK FOR 13 WK, Promoter: NONE USED", "result": "14/14 (100%), 14/15 (93%), 7%, not significant"}]}, {"molecule": "C[C@]12CCC(=O)C=C1CC[C@@H]1[C@@H]2CC[C@@]2(C)[C@H]1CC[C@]2(C)O", "values": [{"measurement": "tumour outcome (control, treated, inhibition, significance)", "setting": "Carcinogen: N-BIS(2-HYDROXYPROPYL)NITROSAMINE, 53609-64-6, Dose [Inhibitor]: 0.03% IN DIET FOR 28 WK BEGINNING POST CARCINOGEN DOSE (STUDY DURATION: 30 WK), Route [Inhibitor]: ORAL, Species: RAT, Strain/Sex: WISTAR/MALE, Target Tissue: Type of Lesion: THYROID: ADENOMA, Dose [Carcinogen]: 210 MG/100 G 1/WK FOR 2 WK, Promoter: NONE USED", "result": "9/13 (69%), 2/15 (13%), 81%, p<0.05"}, {"measurement": "tumour outcome (control, treated, inhibition, significance)", "setting": "Carcinogen: N-BIS(2-HYDROXYPROPYL)NITROSAMINE, 53609-64-6, Dose [Inhibitor]: 0.03% IN DIET FOR 28 WK BEGINNING POST CARCINOGEN DOSE (STUDY DURATION: 30 WK), Route [Inhibitor]: ORAL, Species: RAT, Strain/Sex: WISTAR/MALE, Target Tissue: Type of Lesion: THYROID: CARCINOMA, Dose [Carcinogen]: 210 MG/100 G 1/WK FOR 2 WK, Promoter: NONE USED", "result": "2/13 (15%), 2/15 (13%), 13%, not calculated"}, {"measurement": "tumour outcome (control, treated, inhibition, significance)", "setting": "Carcinogen: N-BIS(2-HYDROXYPROPYL)NITROSAMINE, 53609-64-6, Dose [Inhibitor]: 0.15% IN DIET FOR 28 WK BEGINNING POST CARCINOGEN DOSE (STUDY DURATION: 30 WK), Route [Inhibitor]: ORAL, Species: RAT, Strain/Sex: WISTAR/MALE, Target Tissue: Type of Lesion: THYROID: ADENOMA, Dose [Carcinogen]: 210 MG/100 G 1/WK FOR 2 WK, Promoter: NONE USED", "result": "9/13 (69%), 0/15 (0%), 100%, p<0.05"}]}, {"molecule": "CC(C)=CCC/C(C)=C/C=O", "values": [{"measurement": "outcome", "setting": "Carcinogen: DIMETHYLBENZANTHRACENE, 57-97-6, Dose [Inhibitor]: 0, 1 UMOL IN ACETONE 2/WK ADMINISTERED PRIOR TO EACH PROMOTER DOSE FOR 20 WK (STUDY DURATION: 21 WK), Route [Inhibitor]: DERMAL, Species: MOUSE, Strain/Sex: SKH/HR1/FEMALE, Target Tissue: Type of Lesion: SKIN: TUMOR, Dose [Carcinogen]: 0.1 UMOL IN 0.1 ML ACETONE ONCE, Promoter: TPA, 16561-29-8", "result": "88%, 72%, 18%, p 0.05 at 10 wk of promotion: 96%, 96%, 0%, not calculated at 15"}]}, {"molecule": "CC1=C(O)C(=O)C(C)O1", "note": "(centres undefined)", "values": [{"measurement": "tumour outcome (control, treated, inhibition, significance)", "setting": "Carcinogen: BENZO[A]PYRENE, 50-32-8, Dose [Inhibitor]: 0, 25 PPM IN DIET FOR 17 WK BEGINNING 1 WK POST CARCINOGEN TREATMENT (STUDY DURATION: 21 WK), Route [Inhibitor]: ORAL, Species: MOUSE, Strain/Sex: ICR/FEMALE, Target Tissue: Type of Lesion: FORESTOMACH: TUMOR, Dose [Carcinogen]: 1.5 MG IN 0.2 ML CORN OIL 1/WK FOR 4 WK, Promoter: NONE USED", "result": "90%, 74%, 18%, not significant"}, {"measurement": "tumour outcome (control, treated, inhibition, significance)", "setting": "Carcinogen: BENZO[A]PYRENE, 50-32-8, Dose [Inhibitor]: 0, 50 PPM IN DIET FOR 17 WK BEGINNING 1 WK POST CARCINOGEN TREATMENT (STUDY DURATION: 21 WK), Route [Inhibitor]: ORAL, Species: MOUSE, Strain/Sex: ICR/FEMALE, Target Tissue: Type of Lesion: FORESTOMACH: TUMOR, Dose [Carcinogen]: 1.5 MG IN 0.2 ML CORN OIL 1/WK FOR 4 WK, Promoter: NONE USED", "result": "90%, 72%, 20%, p<0.1"}, {"measurement": "tumour outcome (control, treated, inhibition, significance)", "setting": "Carcinogen: BENZO[A]PYRENE, 50-32-8, Dose [Inhibitor]: 0, 75 PPM IN DIET FOR 17 WK BEGINNING 1 WK POST CARCINOGEN TREATMENT (STUDY DURATION: 21 WK), Route [Inhibitor]: ORAL, Species: MOUSE, Strain/Sex: ICR/FEMALE, Target Tissue: Type of Lesion: FORESTOMACH: TUMOR, Dose [Carcinogen]: 1.5 MG IN 0.2 ML CORN OIL 1/WK FOR 4 WK, Promoter: NONE USED", "result": "90%, 62%, 31%, p<0.05"}]}]}
